Each compound was assayed against T1, integrin α4β7 (RPMI-8866 cells) binding with recombinant human VCAM-1 (Homo sapiens, UniProt P13612+P26010) (assay: VCAM antagonistic activity (VCAM-1/α4β7 binding assay), RPMI-8866 cell adhesion). Settings: recombinant human VCAM-1, 4 mM MnCl2, read-out: VCAM/α 4 β 7 antagonistic activity to integrin (IC50).
T1 construct: lymphoma cell strain RPMI-8866 of human B cells, known to express integrin α4β7; endogenous in cells; host or cells: RPMI-8866 (human B-cell lymphoma line)
T1 sequence (P13612 34-1032): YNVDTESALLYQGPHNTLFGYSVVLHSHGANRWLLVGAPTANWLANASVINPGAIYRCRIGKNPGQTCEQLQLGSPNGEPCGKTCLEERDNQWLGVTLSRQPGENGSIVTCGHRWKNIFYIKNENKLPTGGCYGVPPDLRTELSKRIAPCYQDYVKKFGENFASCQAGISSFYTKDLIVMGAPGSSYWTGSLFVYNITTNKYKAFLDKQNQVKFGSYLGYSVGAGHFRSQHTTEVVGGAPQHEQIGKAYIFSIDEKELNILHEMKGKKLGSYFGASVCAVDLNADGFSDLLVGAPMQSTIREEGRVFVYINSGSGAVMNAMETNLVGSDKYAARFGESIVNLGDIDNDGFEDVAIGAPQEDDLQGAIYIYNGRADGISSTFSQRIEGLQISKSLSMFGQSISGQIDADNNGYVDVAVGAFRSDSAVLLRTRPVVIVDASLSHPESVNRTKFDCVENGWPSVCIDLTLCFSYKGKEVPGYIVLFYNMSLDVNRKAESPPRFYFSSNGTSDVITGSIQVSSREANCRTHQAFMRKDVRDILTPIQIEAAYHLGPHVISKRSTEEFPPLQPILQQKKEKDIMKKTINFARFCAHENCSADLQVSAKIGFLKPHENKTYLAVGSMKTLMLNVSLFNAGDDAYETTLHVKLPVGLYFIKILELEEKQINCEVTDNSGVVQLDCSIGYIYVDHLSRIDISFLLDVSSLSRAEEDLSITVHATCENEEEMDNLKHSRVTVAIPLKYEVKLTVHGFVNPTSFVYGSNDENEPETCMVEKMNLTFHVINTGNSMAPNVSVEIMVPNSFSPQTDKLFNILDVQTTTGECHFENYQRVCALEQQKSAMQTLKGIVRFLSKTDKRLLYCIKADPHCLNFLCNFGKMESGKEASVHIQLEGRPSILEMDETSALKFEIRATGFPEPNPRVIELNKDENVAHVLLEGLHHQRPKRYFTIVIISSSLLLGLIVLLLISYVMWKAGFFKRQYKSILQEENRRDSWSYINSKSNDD
T1 sequence (P26010 20-798): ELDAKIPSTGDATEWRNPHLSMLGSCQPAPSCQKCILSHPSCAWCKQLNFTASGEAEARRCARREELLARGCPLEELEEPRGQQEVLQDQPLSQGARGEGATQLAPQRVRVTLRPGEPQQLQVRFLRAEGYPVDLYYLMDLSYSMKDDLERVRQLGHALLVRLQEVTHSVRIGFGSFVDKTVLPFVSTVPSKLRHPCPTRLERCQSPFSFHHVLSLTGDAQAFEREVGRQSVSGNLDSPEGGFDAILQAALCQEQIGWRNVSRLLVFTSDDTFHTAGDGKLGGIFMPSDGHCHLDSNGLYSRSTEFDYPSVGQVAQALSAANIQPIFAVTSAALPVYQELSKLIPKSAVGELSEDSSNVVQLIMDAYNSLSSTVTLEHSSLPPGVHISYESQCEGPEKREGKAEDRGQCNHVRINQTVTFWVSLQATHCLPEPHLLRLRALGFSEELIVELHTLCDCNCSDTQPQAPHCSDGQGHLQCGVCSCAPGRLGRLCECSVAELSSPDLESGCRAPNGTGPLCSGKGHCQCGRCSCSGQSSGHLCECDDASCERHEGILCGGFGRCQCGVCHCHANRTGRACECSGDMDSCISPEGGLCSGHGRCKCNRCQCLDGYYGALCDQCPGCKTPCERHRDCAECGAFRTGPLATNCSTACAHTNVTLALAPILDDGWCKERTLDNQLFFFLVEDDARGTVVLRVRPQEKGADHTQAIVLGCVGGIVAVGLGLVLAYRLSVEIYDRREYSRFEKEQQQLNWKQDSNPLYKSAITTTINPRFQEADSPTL
Assay type: cell-based
Protocol: (Test Example) VCAM Antagonistic Activity (VCAM-1/α4β7 Binding Assay):
The capacity of a test substance antagonistic to the binding of lymphoma cell strain RPMI-8866 of human B cells, known to express integrin α4β7, with VCAM-1 was determined.
100 μl/well of a solution (500 ng/ml ) of recombinant human VCAM-1 (R & D systems) diluted with buffer A (0.1 M NaHCO3, pwH 9.6) was added to a micro titer plate having 96 wells (Nunc Maxisorp). After the incubation at 4° C. overnight, unbound VCAM-1 was removed by once washing with PBS. After completion of the washing, a buffer (buffer B) obtained by diluting Block Ace® (Dainippon Pharmaceutical Co., Ltd.) with PBS to 1/4 concentration was added in an amount of 150 μl/well. After the incubation at room temperature for 1 hour, buffer B was removed and the plate was washed with PBS once.
RPMI-8866 cells were incubated in Dulbecco modified Eagle medium containing 10 μg/ml of Calcein-AM (Wako Pure Chemical Industries, Ltd.) (SIGMA, hereinafter referred to as “DMEM”) at 37° C. for 30 minutes to label them with fluorescence. The cells were again suspended in a binding buffer (DMEM containing 20 mM HEPES, 0.1% BSA) containing 4 mM of MnCl2.
50 μl of a test substance of various concentrations obtained by the dilution with the binding buffer was added to the plate. Immediately thereafter, 50 μl (final volume: 100 μl/well) of the fluorescent RPMI-8866 cells (4×10^6 cells/ml) were added thereto, and they were incubated at room temperature for 30 minutes. After the shaking on a plate shaker (IKA MTS-4) at 800 rpm for 30 seconds, the solution was immediately removed to remove the unbound cells. The fluorescence quantity of the bound cells remaining in the wells was determined with a fluorescent plate reader (Wallac 1420 ARVO multi-label counter) (filter excitation wave length: 485 nml, emission wave length: 535 nm). The fluorescent strength thus obtained is proportional to the number of RPMI-8866 cells bound to VCAM-1 and remaining on the plate. The binding rate of each test material in various concentrations was determined while the fluorescent strength of the test material-free well was determined to be 100%. The concentration IC50 for the 50% binding inhibition was calculated.

Question: For `O=C(O)[C@H](Cc1ccc(OCc2c(Cl)cccc2Cl)cc1)NC(=O)[C@H]1CC[C@H](C(=O)NNc2ccccc2)CC1` [Example 3, N-(Trans-4-phenylhydrazinocarbonylcyclohexane-1-carbonyl)-O-(2,6-dichlorobenzyl)-L-tyrosine], which IC50 is on record?
Answer: Its IC50 is no more than 200 nM.

Question: `O=C(O)[C@H](Cc1ccc(OCc2c(Cl)cccc2Cl)cc1)NC(=O)[C@H]1CC[C@H](C(=O)NNc2ccc(Br)cc2)CC1` [Example 4, N-[Trans-4-(4-bromophenylhydrazinocarbonyl)cyclohexane-1-carbonyl]-O-(2,6-dichlorobenzyl)-L-tyrosine] was tested. Which IC50 did it give?
Answer: Its IC50 is 200 to 1000 nM.

Question: For `O=C(O)[C@H](Cc1ccc(OCc2c(Cl)cccc2Cl)cc1)NC(=O)[C@H]1CC[C@H](C(=O)NCc2ccccc2)CC1` [Example 6], which IC50 is on record?
Answer: The IC50 was 1000 to 5000 nM.

Question: How did the IC50 turn out when `COc1cccc(NNC(=O)[C@H]2CC[C@H](C(=O)N[C@@H](Cc3ccc(OCc4c(Cl)cccc4Cl)cc3)C(=O)O)CC2)c1` [Example 44] was run?
Answer: The IC50 was no more than 200 nM.

Question: `O=C(Nc1ccc(C[C@H](NC(=O)[C@H]2CC[C@H](C(=O)O)CC2)C(=O)O)cc1)c1snnc1-c1ccccc1` [Example 45, N-(Trans-4-carboxycyclohexane-1-carbonyl)-4-{[(4-phenyl-1,2,3-thiadiazole-5-yl)carbonyl]amino}-L-phenylalanine] was tested. Which IC50 did it give?
Answer: Its IC50 is no more than 200 nM.

Question: For `COc1cccc(OC)c1-c1ccc(C[C@H](NC(=O)[C@H]2CC[C@H](C(=O)O)CC2)C(=O)O)cc1` [Example 50, N-(Trans-4-carboxycyclohexane-1-carbonyl)-4-(2,6-dimethoxyphenyl)-L-phenylalanine], which IC50 is on record?
Answer: Its IC50 is no more than 200 nM.

Question: For `COc1ccc(NNC(=O)[C@H]2CC[C@H](C(=O)N[C@@H](Cc3ccc(-c4c(OC)cccc4OC)cc3)C(=O)O)CC2)cc1` [Example 51, N-[Trans-4-(4-methoxyphenylhydrazinocarbonyl)cyclohexane-1-carbonyl]-4-(2,6-dimethoxyphenyl)-L-phenylalanine], which IC50 is on record?
Answer: Its IC50 is no more than 200 nM.

Question: How did the IC50 turn out when `Cc1ccc(NNC(=O)[C@H]2CC[C@H](C(=O)N[C@@H](Cc3ccc(OCc4c(Cl)cccc4Cl)cc3)C(=O)O)CC2)cc1` [Example 34] was run?
Answer: The IC50 was no more than 200 nM.

Question: How did the IC50 turn out when `COc1ccc(NNC(=O)[C@H]2CC[C@H](C(=O)N[C@@H](Cc3ccc(OCc4c(Cl)cccc4Cl)cc3)C(=O)O)CC2)cc1` [Example 14] was run?
Answer: Its IC50 is no more than 200 nM.

Question: `O=C(O)[C@H](Cc1ccc(OCc2c(Cl)cccc2Cl)cc1)NC(=O)[C@H]1CC[C@H](C(=O)O)CC1` [Example 2, N-(Trans-4-carboxycyclohexane-1-carbonyl)-O-(2,6-dichlorobenzyl)-L-tyrosine] was tested. Which IC50 did it give?
Answer: The IC50 was no more than 200 nM.

Question: How did the IC50 turn out when `O=C(O)[C@H](Cc1ccc(OCc2c(Cl)cccc2Cl)cc1)NC(=O)[C@H]1CC[C@H](C(=O)NNc2ccc(OC(F)(F)F)cc2)CC1` [Example 35] was run?
Answer: The IC50 was no more than 200 nM.

Question: Which IC50 does the source give for `COc1ccc(NNC(=O)[C@H]2CC[C@H](C(=O)N[C@@H](Cc3ccc(NC(=O)c4snnc4-c4ccccc4)cc3)C(=O)O)CC2)cc1` [Example 46, N-[Trans-4-(4-methoxyphenylhydrazinocarbonyl)cyclohexane-1-carbonyl]-4-{[(4-phenyl-1,2,3-thiadiazole-5-yl)carbonyl]amino}-L-phenyl-alanine] here?
Answer: Its IC50 is no more than 200 nM.

Reference: patent US6610710B2, “Phenylalanine derivatives” (Ajinomoto Co., Inc., priority 1999, dated 2003)
